Measurements as given in patent US8252737B2, “Antimicrobial peptides and methods of use” (priority 2004, dated 2012).
Converted amounts (≈) assume the structure as drawn. Marks after values point to notes of the source that are not given here.

Tests used:
[1] = tested on: Staphylococcus epidermidis
[2] = tested on: Pseudomonas aeruginosa strains; details: for MIC GM: geometric mean of six Pseudomonas aeruginosa clinical isolates; for MIC CP 204: strain CP 204; for MIC M 2: strain M 2; for MIC PA 14: strain PA 14; for MIC PAK: strain PAK; for MIC PAO 1: strain PAO 1; for MIC WR 5: strain WR 5
Method: Pseudomonas aeruginosa strains used in this study are a diverse group of clinical isolates from different places in the world. […] The geometric mean MIC values from six Pseudomonas aeruginosa strains were calculated to provide an overall evaluation of antimicrobial activity of these peptides against Pseudomonas aeruginosa. Fold improvement was calculated by comparing the geometric mean MIC value of each peptide to that of the parent peptide V681.
(§1) Measurement of Antimicrobial Activity—Minimal inhibitory concentrations (MICs) were determined using a standard microtiter dilution method in LB (Luria-Bertani) no-salt medium (10 g of tryptone and 5 g of yeast extract per liter). Briefly, cells were grown overnight at 37° C. in LB and diluted in the same medium. […] Plates were incubated at 37° C. for 24 hours and MICs determined as the lowest peptide concentration that inhibited growth. Alternatively, minimal inhibitory concentrations were determined using a standard microtiter dilution method in a Mueller-Hinton (MH) medium. Briefly, cells were grown overnight at 37° C. in MH broth and diluted in the same medium. […] Plates were incubated at 37° C. for 24 hours and MICs determined as the lowest peptide concentration that inhibited growth. However, for MIC determination of Pseudomonas aeruginosa clinical isolates, brain heart infusion (BH1) medium was used instead of MH broth. In addition, the bacteria were diluted to a final inoculum of 1×10^6 colony-forming units/ml.
For the Leu-substituted peptides, the hemolytic activity against human erythrocytes was determined as the maximal peptide concentration that produces no hemolysis after 18 hours of incubation at 37° C. Antimicrobial activity of the peptides was determined on a diverse group of Pseudomonas aeruginosa clinical isolates. […] The geometric mean MIC values from six Pseudomonas strains in Table 14 were calculated to provide an overall evaluation of antimicrobial activity of the peptides with different hydrophobicities.

human erythrocytes = experiment: Hemolytic activity (MHC), Protocol B, 18 hours; details: for Hemolytic activity Fold: fold decrease in hemolytic activity compared to V681, 18 hours; for Hemolytic activity MHC: maximal peptide concentration producing no hemolysis after 18 hours, 37° C.; for MHC (μg/ml) hRBC: maximal peptide concentration with no hemolysis after 18 hours
Method: In order to evaluate the biological activities of the D-enantiomeric peptides, namely D-NAL and D-NKD, the hemolytic activity of the peptides against human erythrocytes was determined as the maximal peptide concentration that produces no hemolysis after 18 hours of incubation at 37° C.
(§2) Measurement of Hemolytic Activity—Protocol A: Peptide samples were added to 1% human erythrocytes in phosphate buffered saline (0.08M NaCl; 0.043M Na2PO4; 0.011M KH2PO4) and reactions were incubated at 37° C. for 12 hours in microtiter plates. Peptide samples were diluted 2 fold in order to determine the concentration that produced no hemolysis. […] Hemoglobin release was determined spectrophotometrically at 562 nm. The hemolytic titer was the highest 2-fold dilution of the peptide that still caused release of hemoglobin from erythrocytes. The control for no release of hemoglobin was a sample of 1% erythrocytes without any peptide added. […] Peptide samples were diluted 2 fold in order to determine the concentration that produced no hemolysis. […] Hemoglobin release was determined spectrophotometrically at 570 nm. The hemolytic titer was the highest 2-fold dilution of the peptide that still caused release of hemoglobin from erythrocytes. The control for no release of hemoglobin was a sample of 1% erythrocytes without any peptide added.

gram-negative bacteria = experiment: MIC, microtiter dilution, Gram-negative bacteria (geometric mean of 6 strains); type: cell-based; details: geometric mean of MIC values from all 6 Gram-negative strains of Table 11
Method: (§3) The geometric mean MIC values from 6 microbial strains in this table were calculated to provide an overall evaluation of antimicrobial activity against gram-negative bacteria.
In Table 11, geometric mean MIC was calculated to provide an overall view of antimicrobial activity of the peptides against Gram-negative bacteria and was also used to calculate the therapeutic index.
as §1

[3] = Salmonella typhimurium wild-type lab strain
Method: as §3, §1

[4] = tested on: E. coli (UB 1005 wt and DC2 abs); details: for MIC (μg/ml) E. coli C500 abs: antibiotic sensitive strain; for MIC (μg/ml) E. coli C498 wt: wild-type lab strain
Method: as §3, §1

S. typhimurium C610 abs = details: Salmonella typhimurium antibiotic sensitive strain
Method: as §3, §1

P. aeruginosa H187 wt = details: for MIC (μg/ml) Pa H188 abs: Pseudomonas aeruginosa antibiotic sensitive strain; for MIC (μg/ml) Pa H187 wt: Pseudomonas aeruginosa wild-type lab strain
Method: as §3, §1

E. faecalis = details: wild type strain
Method: as §1

C. albicans = details: fungus
Method: as §1

gram-positive bacteria = details: geometric mean of MIC values from all 6 gram-positive strains of Table 12
Method: as §1

human red blood cells = experiment: Hemolysis time study (0-8 hours, 8-500 μg/ml)
Method: The percent hemolysis of cells was determined spectrophotometrically by comparison with the complete hemolysis of cells in water.
as §2, with “Measurement of Hemolytic Activity—Protocol A: Peptide samples were added to 1% human erythrocytes in phosphate buffered saline (0.08M NaCl; 0.043M Na2PO4; 0.011M KH2PO4) and reactions were incubated at 37° C. for 12 hours in microtiter plates.” left out

| Compound | MIC (μg/ml) C. xerosis C875 wt (Corynebacterium xerosis) [µg/mL] | MIC (μg/ml) B. subtilis C971 wt (Bacillus subtilis) [µg/mL] | MIC (μg/ml) S. epidermidis C621 wt [1] [µg/mL] | MIC GM [2] [µg/mL] | MIC CP 204 [2] [µg/mL] | MIC M 2 [2] [µg/mL] | MIC PA 14 [2] [µg/mL] | MIC PAK [2] [µg/mL] | MIC PAO 1 [2] [µg/mL] | MIC WR 5 [2] [µg/mL] | MIC (μg/ml) S. aureus 622 wt (Staphylococcus aureus) [µg/mL] | MIC (μg/ml) S. aureus 623 methR (Staphylococcus aureus) [µg/mL] | Hemolytic activity Fold (human erythrocytes) | Hemolytic activity MHC (human erythrocytes) | MHC (μg/ml) hRBC (human erythrocytes; Table 11) | MHC (μg/ml) hRBC (human erythrocytes; Table 12) | MIC (μg/ml) GM (gram-negative bacteria) [µg/mL] | MIC (μg/ml) St C587 wt [3] [µg/mL] | MIC (μg/ml) E. coli C500 abs [4] [µg/mL] | MIC (μg/ml) E. coli C498 wt [4] [µg/mL] | also measured |
| --- | --- | --- | --- | --- | --- | --- | --- | --- | --- | --- | --- | --- | --- | --- | --- | --- | --- | --- | --- | --- | --- |
| CC[C@@H](C)[C@@H](NC(=O)[C@@H](C)NC(=O)[C@@H](CCCCN)NC(=O)[C@@H](CC(C)C)NC(=O)[C@@H](C)NC(=O)[C@H](NC(=O)[C@@H](Cc1c[nH]cn1)NC(=O)[C@@H](CC(C)C)NC(=O)[C@H](NC(=O)[C@H](NC(=O)[C@@H](CCCCN)NC(=O)[C@@H](CCCCN)NC(=O)[C@@H](C)NC(=O)[C@@H](CO)NC(=O)[C@@H](CCCCN)NC(=O)[C@@H](Cc1ccccc1)NC(=O)[C@H](NC(=O)[C@@H](CCCCN)NC(=O)[C@@H](CC(C)C)NC(=O)[C@@H](Cc1ccccc1)NC(=O)[C@@H](CO)NC(=O)[C@@H](CCCCN)NC(=O)[C@@H](Cc1c[nH]c2ccccc12)NC(=O)[C@@H](CCCCN)NC(C)=O)[C@H](C)O)[C@H](C)O)C(C)C)[C@H](C)O)C(=O)N[C@H](CO)C(=O)N[C@H](CO)C(N)=O [D-NKD] | 1.6 (≈ 0.535 µM) | 1.6 (≈ 0.535 µM) | 3.1 (≈ 1.04 µM) | 31.2 (≈ 10.4 µM) | 15.6 (≈ 5.22 µM) | 31.3 (≈ 10.5 µM) | 15.6 (≈ 5.22 µM) | 125.0 (≈ 41.8 µM) | 15.6 (≈ 5.22 µM) | 62.5 (≈ 20.9 µM) | 6.3 (≈ 2.11 µM) | 6.3 (≈ 2.11 µM) | 32 | 250.0^h μg/ml | 250.0^h μg/ml | 250.0^h μg/ml | 3.9 (≈ 1.3 µM) | 6.3 (≈ 2.11 µM) | 3.1 (≈ 1.04 µM) | 3.1 (≈ 1.04 µM) | MIC (μg/ml) St C610 abs (S. typhimurium C610 abs): 3.1 µg/mL (≈ 1.04 µM); MIC (μg/ml) Pa H188 abs (P. aeruginosa H187 wt): 3.1 µg/mL (≈ 1.04 µM); MIC (μg/ml) Pa H187 wt (P. aeruginosa H187 wt): 6.3 µg/mL (≈ 2.11 µM); MIC (μg/ml) E. faecalis C625 wt (E. faecalis): 12.5 µg/mL (≈ 4.18 µM); MIC (μg/ml) C. albicans (C. albicans): 25.0 µg/mL (≈ 8.36 µM); MIC (μg/ml) GM (gram-positive bacteria): 4.0 µg/mL (≈ 1.34 µM) |
| CC[C@@H](C)[C@@H](NC(=O)[C@@H](C)NC(=O)[C@@H](CCCCN)NC(=O)[C@@H](CC(C)C)NC(=O)[C@@H](C)NC(=O)[C@H](NC(=O)[C@@H](Cc1c[nH]cn1)NC(=O)[C@@H](CC(C)C)NC(=O)[C@H](NC(=O)[C@H](NC(=O)[C@@H](CCCCN)NC(=O)[C@H](C)NC(=O)[C@@H](C)NC(=O)[C@@H](CO)NC(=O)[C@@H](CCCCN)NC(=O)[C@@H](Cc1ccccc1)NC(=O)[C@H](NC(=O)[C@@H](CCCCN)NC(=O)[C@@H](CC(C)C)NC(=O)[C@@H](Cc1ccccc1)NC(=O)[C@@H](CO)NC(=O)[C@@H](CCCCN)NC(=O)[C@@H](Cc1c[nH]c2ccccc12)NC(=O)[C@@H](CCCCN)NC(C)=O)[C@H](C)O)[C@H](C)O)C(C)C)[C@H](C)O)C(=O)N[C@H](CO)C(=O)N[C@H](CO)C(N)=O [D-NAL] | 1.6 (≈ 0.545 µM) | 1.6 (≈ 0.545 µM) | 1.6 (≈ 0.545 µM) | 13.9 (≈ 4.74 µM) | 7.8 (≈ 2.66 µM) | 15.6 (≈ 5.32 µM) | 7.8 (≈ 2.66 µM) | 31.3 (≈ 10.7 µM) | 7.8 (≈ 2.66 µM) | 31.3 (≈ 10.7 µM) | 3.1 (≈ 1.06 µM) | 3.1 (≈ 1.06 µM) | 4 | 31.3 µg/mL | 31.3 µg/mL | 31.3 µg/mL | 3.9 (≈ 1.33 µM) | 12.5 (≈ 4.26 µM) | 3.1 (≈ 1.06 µM) | 3.1 (≈ 1.06 µM) | hemolysis of human red blood cells (human red blood cells; 500 μg/ml, after 1 hour incubation): approximately 40%; hemolysis of human red blood cells (human red blood cells; peptide concentration of 32 μg/ml): negligible hemolysis; MIC (μg/ml) St C610 abs (S. typhimurium C610 abs): 3.1 µg/mL (≈ 1.06 µM); MIC (μg/ml) Pa H188 abs (P. aeruginosa H187 wt): 3.1 µg/mL (≈ 1.06 µM); MIC (μg/ml) Pa H187 wt (P. aeruginosa H187 wt): 3.1 µg/mL (≈ 1.06 µM); MIC (μg/ml) E. faecalis C625 wt (E. faecalis): 12.5 µg/mL (≈ 4.26 µM); MIC (μg/ml) C. albicans (C. albicans): 12.5 µg/mL (≈ 4.26 µM); MIC (μg/ml) GM (gram-positive bacteria): 2.8 µg/mL (≈ 0.954 µM) |
